Test results as given in patent publication US5648373A, “CoA-IT and PAF inhibitors” (SmithKline Beecham Corporation, priority 1992, dated 1997).
“Also recorded” adds a separate entry of the source.

Legend:
human neutrophils [1] = assay: Arachidonic acid release assay (assay b), A23187-challenged neutrophils; type: cell-based
Method: Human neutrophils were obtained in the laboratory using three different methods. One method used leukophoresis packs from normal humans and neutrophils were isolated using the histopaque-1077 technique. The blood was centrifuged at 300× g for 10 minutes. The cell pellets were resuspended in PBS composed of 137 mM NaCI, 8.8 mM Na2HPO4, 1.5 mM KH2PO4, 2.7 mM KCI (Dulbecco's Gibco Laboratories, Long Island, N.Y.) and layered over histopaque-1077 (Sigma, St. Louis, Mo.). The pellets were collected after centrifugation (300× g for 30 minutes) and washed once in PBS. The cell pellets were exposed briefly to dionized water to Iyse any erythrocytes. The remaining cells were collected by centrifugation, suspended in PBS, counted and identified after cytospinning and staining. The final leukocyte preparation was of greater than 95% purity and viability.
The second method isolated human neutrophils from fresh heparinized normal blood using the Histopaque-1077 technique. […] The remaining cells were collected by centrifugation, suspended in PBS, counted and identified after cytospinning and staining. […]
The third method isolated human neutrophils from freshly drawn heparinized normal blood using the Percoll technique. […] The neutrophils were suspended in PBS, counted and identified after cytospinning and staining. […]

human neutrophils [2] = assay: Assay for production of platelet-activating factor (assay c), A23187-challenged neutrophils; type: cell-based
Method: Blood was obtained from normal humans and neutrophils were isolated as described for the arachidonic acid release assay, above. The final leukocyte preparation was of greater than 95% purity and viability.
Neutrophils were suspended in PBS at concentrations of 5 to 20×10^6 cells per ml. Cells were added to test tubes and treated with the desired compounds for 5 to 10 minutes, then challenged with calcium ionophore A23187, 2 μM and 20-30 μCi of [^3 H]acetic acid (NEN-Dupont, Boston, Mass.), or the vehicle of PBS with 0.25-1 mg/ml […]. After 5 to 20 minutes, the reactions were terminated by addition of an equal volume of chloroform:methanol (1:2, v/v) to the samples and the lipids were extracted by addition of equal volumes of chloroform and distilled water. The samples were vortexed and centrifuged at high speed and the chloroform layer removed to a clean tube.
The chloroform from each tube was evaporated to dryness and the material suspended in a small volume of chloroform or chloroform:methanol (25-100 μl) and the total material spotted on a Silica TLC plate. The plates were developed in chloroform/methanol/acetic acid/water (50:25:8:4, v/v) visualized by radioscanning (Bioscan) and the product, [^3 H]PAF, was scraped and quantified by liquid scintillation spectroscopy. With this TLC system, the Rf value for a synthetic standard of PAF was approximately 0.33.

[3] = system: mouse bone marrow-derived mast cells; assay: Arachidonate content of cellular phospholipids of mast cells (method e); type: cell-based
Method: As treatment of intact cells blocks the movement of arachidonate into specific cellular phospholipids, it followed that prolonged treatment of inflammatory cells with CoA-IT inhibitors could deplete their large endogenous pools of arachidonate within phospholipids. To determine that CoA-IT inhibition can alter the amount of arachidonate within cellular phospholipids, mouse bone marrow-derived mast cells were treated with Compound 3 for 24 hours and the mass of arachidonate within total cellular phospholipids was determined. Compound 3 induced a concentration-dependentreduction in the total cellular arachidonate within mast cells, with greater than 75% reduction apparent at 20 μM. […]
The following is the method for assessing the ability of a compound to alter arachidonate content of cellular phospholipids, which can be generalized for any desired cell. […] The radioactive and mole quantities of arachidonate in complex lipids are determined. At this point, cellular lipid extracts are treated with KOH (0.5M) to remove fatty acids from complex lipids (phospholipids) and the quantities of arachidonate in these extracts can then be determined by various methods, including gas chromatography and mass spectrometry (Chilton [Methods Enzymol. (1990) 187, 157-166]).

[4] = system: TPA-induced inflammation in the mouse ear; assay: TPA-induced inflammation of the mouse ear (assay d): ear thickness, myeloperoxidase; type: in vivo; details: topical TPA
Method: The ability of compounds that inhibit CoA-IT to affect in vivo inflammatory responses was assessed. Inflammatory responses were induced in the mouse ear by the topical application of a pro-inflammatory agent, such as 12-0-tetradecanoylphorbol 13-acetate. This produced an edematous response, as measured by increases in ear thickness, as well as increased inflammatory cellular infiltrate, as measured by increases in myeloperoxidase activity as described in the methods.
Male Balb/c inbred mice were obtained from Charle River Breeding Laboratories (Kingston, N.Y.). Within a single experiment mice (22-25 g) were age-matched. These in vivo experiments typically involved use of 5-6 animals/group.
TPA (12-0-tetradecanoylphorbol 13-acetate) (Sigma Chemical Company) in acetone (4 μg/20 μl) was applied to the inner and outer surfaces of the left ear of BALB/c male mice. The thickness of both ears was then measured with a dial micrometer (Mitutoyo, Japan) at both 2 and 4 hours after treatment, and the data expressed as the change in thickness (10-^3 cm) between treated and untreated ears. […] After measuring the edema, the inflammed left ears were removed and stored at -70° C. until they were assayed for MPO (myeloperoxidase) activity where appropriate. […]

intact human neutrophils = assay: Movement of [3H]arachidonate into 1-ether-linked phospholipids in intact non-stimulated neutrophils (method e); type: cell-based; details: various concentrations, 2 hours, no cellular stimulation
Method: CoA-IT activity can also be measured in intact cells by following the movement of a pulse of [^3 H]arachidonate as it moves into the "pool 2" phospholipids (1-alkyl and 1-alkenyl phospholipids) in inflammatory cells. These specific studies were performed in intact human neutrophils, which contain CoA-IT activity and transfer arachidonate into 1-alkyl and 1-alkenyl phospholipids. To determine the effects of Compound 3 on this transfer of arachidonate, neutrophils were exposed briefly to [^3 H]arachidonic acid to allow incorporation of the label into 1-acyl phospholipids, treated with various concentrations of Compound 3 and the movement of [^3 H]arachidonate between phospholipid subclasses assessed over the subsequent 2 hours in the absence of cellular stimulation.
Measurement of the effect of CoA-IT inhibitors on the transfer of [^3 H]arachidonate into 1-ether phospholipids in non-stimulated inflammatory cells can be accomplished by general application of the following specific method. Human neutrophils were isolated and resuspended (5×10^7 /ml) in Hanks Balanced Salt Solution (HBSS; Gibco). […] The phospholipid subclasses were separated by TLC in benzene/hexane/ethyl ether (50:45:4, v/v), located by image analysis (Bioscan) and the amount of radioactivity in each class was determined by zonal scraping and liquid scintillation counting.

## CCOP(=O)(CCCCCCCn1c(-c2ccccc2)c(-c2ccccc2)n(-c2ccccc2)c1=O)OCC [Compound 3, Diethyl 7-(3-4-5-triphenyl-2-oxo-2-3-dihydroimidazol-1-yl)heptane phosphonate]
Human neutrophils [1]
  inhibition of free arachidonic acid release: completely and in a concentration dependent fashion; also recorded: inhibition
Human neutrophils [2]
  inhibition of PAF production: completely and in a concentration dependent fashion; also recorded: inhibition
[3]; 24 hours, various concentrations
  loss of arachidonate from all major phospholipid classes of the mast cell: concentration-dependent loss
[3]; mast cells
  loss in the mass of 18:0, 18:1, 18:2 from PI, PE and PC: no loss
[4]; listed as Example 3
  anti-inflammatory effect in vivo (TPA-induced mouse ear inflammation): positive inhibition; also recorded: anti-inflammatory responses
[4]; listed as compound 3
  anti-inflammatory effect in vivo (TPA-induced mouse ear inflammation): anti-inflammatory effect
Intact human neutrophils
  movement of [3H]arachidonate into 1-ether-linked phospholipids, 1-alkyl PC and 1-alkenyl PE: concentration-dependent blockade; also recorded: completely block
Intact human neutrophils; listed as Example 3
  movement of [3H]arachidonate into 1-ether-linked phospholipids, 1-alkyl PC and 1-alkenyl PE: concentration-dependent blockade
